Among the test systems are PC-3 prostate; NCI-H23 lung; KM12 colon; MALME-3M melanoma; U251 CNS; LOX IMVI melanoma; SN12C renal.
Holding throughout (assay): NCI-60 cell line screen, 48 h

Several values for one entry are separate records, joined by “and”; a condition that tells them apart may be missing. Equal values may be shown once.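 Method: 48-hour compound exposure of cells in 96-well plates, five concentrations, linear interpolation of endpoints. GI50 is the concentration that inhibits growth by half. At the TGI there is no net growth.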 Activity calls are given as the source filed them. Cut-off read from the data, not from the text of the source: active = GI50 below about 0.43 µM; inactive = the rest. Where only a bound is given, the exact number is not on record here.

This passage reports TGI, GI50 and outcome results from PubChem BioAssay (NCI).

As for `O=C(c1ccccc1)c1c(C(F)(F)F)n([O-])c2cc(F)c(F)cc2[n+]1=O`, the TGI in the test with PC-3 prostate came out at 2.44 µM; with NCI-H23 lung it was 0.789 µM; in the test on KM12 colon, 3.9 µM; in the test with MALME-3M melanoma, 0.42 µM.
On to `COc1ccc(-c2nc(-c3cnccn3)n(Cc3ccccc3)n2)cc1`, for which the TGI with U251 CNS, in the test with PC-3 prostate, in the test on LOX IMVI melanoma, in the test on SN12C renal, with NCI-H23 lung and with KM12 colon was greater than 100 µM each time.
For the molecule `COc1ccc(C2=C(Cl)c3cc(OC)c(OC)cc3C2)cc1OC`, the TGI in the test with U251 CNS, with SN12C renal, in the test with NCI-H23 lung and in the test with MALME-3M melanoma was greater than 100 µM throughout.
For the molecule `CC(=O)c1[nH]c(Nc2ccc(C)cc2)c(C(=S)Nc2ccccc2)c1N`, the TGI in the test with U251 CNS amounted to 29.9 µM; with LOX IMVI melanoma, 33.3 µM; with SN12C renal, 35 µM; with NCI-H23 lung, 42.8 µM; in the test on KM12 colon it was 34.8 µM; with MALME-3M melanoma, 31.9 µM.
Consider `COc1cc(C(O)C(=O)c2cnc3cc([N+](=O)[O-])ccc3n2)ccc1O` (centres undefined), for which the TGI with U251 CNS, with LOX IMVI melanoma, in the test with SN12C renal, in the test on KM12 colon and with MALME-3M melanoma was greater than 100 µM throughout.
As for `COc1cc2c(c(OC)c1OC)-c1ccc(SC)c(=O)cc1[C@@H](NCc1cccc([N+](=O)[O-])c1)CC2`, the TGI in the test on U251 CNS is less than 0.01 µM; in the test with LOX IMVI melanoma, 38.1 µM; with SN12C renal, greater than 100 µM; in the test on NCI-H23 lung it was less than 0.01 µM; in the test on KM12 colon it was 0.0754 µM; in the test with MALME-3M melanoma, greater than 100 µM.
Turning to `COc1ccc([C@H]2c3cc4c(cc3OC(O)(CO)[C@H]2C(=O)O)OCO4)c(OC)c1` (some centres undefined) (tested in a mixture with another compound), the TGI with U251 CNS, in the test with LOX IMVI melanoma, in the test on SN12C renal, with NCI-H23 lung, with KM12 colon and in the test on MALME-3M melanoma was greater than 100 µM in each case.
On to `C1=CN2C[n+]3ccc4ccccc4c3N=C2c2ccccc21`, for which the TGI with U251 CNS was determined as 10.2 µM; with PC-3 prostate, 31.1 µM; with SN12C renal, 9.52 µM; with NCI-H23 lung it was 21.4 µM; in the test on KM12 colon, 10.7 µM; in the test on MALME-3M melanoma it was 3.46 µM.
Turning to `COc1ccc(CCCN2c3ccccc3Sc3ccccc32)cc1`, the TGI with U251 CNS, in the test with LOX IMVI melanoma, in the test on SN12C renal, with NCI-H23 lung, in the test with KM12 colon and with MALME-3M melanoma was greater than 100 µM in each case.
`CCn1c(=O)c2c3ccc(OC)cc3[nH]c2c2ccc(OC)cc21`: the TGI with U251 CNS, in the test on PC-3 prostate, with SN12C renal, with NCI-H23 lung, in the test with KM12 colon and in the test with MALME-3M melanoma was greater than 100 µM throughout.
Regarding `O=C(NN1C(=O)C(Cl)C1c1ccccc1Cl)c1ccccc1O` (centres undefined), the TGI in the test with U251 CNS, with LOX IMVI melanoma, in the test with SN12C renal, in the test with KM12 colon and with MALME-3M melanoma was greater than 100 µM in each case.
In the case of `COc1cc(-c2nc3cc(Cl)c(Cl)cc3[nH]2)ccc1OCC(=O)N=Nc1c(O)[nH]c2ccc(Cl)cc12`, the GI50 in the test with U251 CNS was 0.203 µM; with LOX IMVI melanoma it was 0.233 µM; with NCI-H23 lung, 0.489 µM. For the same molecule, the TGI with U251 CNS came out at 0.565 µM; in the test with LOX IMVI melanoma, 0.738 µM; in the test with NCI-H23 lung, 3.09 µM.
Take `CCCCOc1ccc2c(c1)CC[C@@H]1[C@@H]2CC[C@]2(C)C(=O)N(CCCC)C(=O)C[C@@H]12`: the TGI in the test with U251 CNS, in the test with PC-3 prostate, in the test with SN12C renal, in the test with NCI-H23 lung, with KM12 colon and in the test on MALME-3M melanoma was greater than 100 µM throughout.
In the case of `O=c1c2cc(I)ccc2nc(SCc2nnco2)n1Cc1ccccc1`, the TGI in the test on U251 CNS, in the test with PC-3 prostate, in the test on LOX IMVI melanoma, with SN12C renal, in the test with NCI-H23 lung and in the test with KM12 colon was greater than 100 µM each time.
With `CC1=CC(=O)/C(=C/n2c(=S)[nH]c3cc(C)ccc32)C(=O)O1`, the TGI with U251 CNS, with PC-3 prostate, with LOX IMVI melanoma, with SN12C renal, in the test with NCI-H23 lung and in the test with KM12 colon was greater than 100 µM throughout.
In the case of `O=S(c1ccc(Cl)cc1)c1ccccc1C1=NCCN1` (centres undefined), the TGI in the test with U251 CNS, with PC-3 prostate, in the test with SN12C renal, with NCI-H23 lung, in the test on KM12 colon and in the test on MALME-3M melanoma was greater than 100 µM throughout.
In the case of `O=P(O)(O)CN1CCNCCN(CP(=O)(O)O)CCN(CP(=O)(O)O)CCNCC1`, the result in the test on U251 CNS, in the test with PC-3 prostate, with SN12C renal, with NCI-H23 lung and in the test with MALME-3M melanoma was inactive. Moreover, the TGI in the test with MALME-3M melanoma is 44.1 µM.
On to `COc1cccc([C@@H]2CC(=O)c3cc4c(cc3N2)OCO4)c1`, for which the TGI in the test on U251 CNS, in the test with PC-3 prostate, in the test on LOX IMVI melanoma, in the test on SN12C renal and in the test on KM12 colon was greater than 100 µM throughout.
Take `CC1(C)CN=CC(C)(OCc2ccccc2)C(=O)NC(C)(C)CN=CC(C)(OCc2ccccc2)C(=O)N1` (centres undefined): the TGI with U251 CNS, with PC-3 prostate, in the test with LOX IMVI melanoma, with SN12C renal, in the test on NCI-H23 lung and with KM12 colon was greater than 10 µM each time.
Take `C[N+](C)(C)CC(=O)N/N=C(/Cc1nc2ccc([N+](=O)[O-])cc2[nH]c1=O)C(=O)Nc1cc(C(F)(F)F)ccc1Cl`: the TGI with SN12C renal, with NCI-H23 lung, with KM12 colon and with MALME-3M melanoma was greater than 100 µM each time.
For `CCC(=O)N1C(=O)C(CC)(CC)C(=O)N1C(=O)CC`, the TGI in the test on U251 CNS, with PC-3 prostate, in the test on SN12C renal, in the test on NCI-H23 lung, with KM12 colon and in the test on MALME-3M melanoma was greater than 100 µM in each case.
As to `OCC1OC(c2ccccc2)CC1O` (centres undefined), the TGI with U251 CNS, in the test on LOX IMVI melanoma, with SN12C renal and in the test with KM12 colon was greater than 100 µM each time.
As for `COc1ccc(C2=NNC(c3cc4cc(Br)ccc4nc3Cl)C2)cc1` (centres undefined), the TGI in the test with PC-3 prostate, in the test with SN12C renal, in the test with NCI-H23 lung and with KM12 colon was greater than 25 µM throughout.
Turning to `O=C(Nc1ccc(Sc2ccc(N=Nc3c(O)c(S(=O)(=O)O)cc4cc(S(=O)(=O)O)ccc34)cc2)cc1)c1ccc(N=Nc2c(O)c(S(=O)(=O)O)cc3cc(S(=O)(=O)O)ccc23)cc1`, the TGI is greater than 100 µM with U251 CNS; 34.5 µM in the test on LOX IMVI melanoma; greater than 100 µM in the test on SN12C renal; 61.2 µM with NCI-H23 lung; greater than 100 µM in the test with KM12 colon; 53.5 µM in the test with MALME-3M melanoma.
Turning to `COc1cc2c(c(OC)c1OC)-c1ccc(SC)c(=O)cc1[C@@H](NC(=O)c1ccc([N+](=O)[O-])cc1)CC2`, the TGI is 25 µM and > 100 µM with LOX IMVI melanoma; 25 µM and > 100 µM in the test on SN12C renal; 25 µM and > 100 µM with MALME-3M melanoma.
Take `O=C(CSCC(=O)N/N=C\c1ccccc1F)N/N=C\c1ccccc1F`: the TGI in the test on U251 CNS, in the test on LOX IMVI melanoma, in the test with SN12C renal, in the test with NCI-H23 lung, in the test on KM12 colon and in the test on MALME-3M melanoma was greater than 100 µM throughout.
As to `O=C(c1ccccc1O)c1cc(-c2ncc3c(=O)c4ccccc4oc3n2)c(-c2ccccc2O)[nH]c1=O`, the TGI in the test on U251 CNS was 27.7 µM; in the test with LOX IMVI melanoma, 39.1 µM; with SN12C renal it was 63.7 µM; in the test with NCI-H23 lung, 50.1 µM; in the test on KM12 colon, greater than 80 µM; in the test with MALME-3M melanoma, 74.4 µM.
On to `O=C(/C=C/c1ccccc1)Oc1cccc(Br)c1`, for which the TGI in the test with U251 CNS, with PC-3 prostate, in the test on LOX IMVI melanoma, with SN12C renal, with NCI-H23 lung and with KM12 colon was greater than 100 µM in each case.
With `O=Cc1c(Br)[nH]c2ccccc12`, the TGI with U251 CNS, with LOX IMVI melanoma, in the test with SN12C renal, with NCI-H23 lung, in the test on KM12 colon and in the test with MALME-3M melanoma was greater than 100 µM in each case.
Consider `Cn1cnc(SC2=C3C(=O)C=C4S[C@H]5C[C@]42c2c(c(O)c4c6c2=[N+]3CCC=6C=N4)N5)c1CC(N)C(=O)O` (some centres undefined), for which the TGI stood at 31.3 µM with U251 CNS; 26.1 µM with LOX IMVI melanoma; 10.2 µM with SN12C renal; 23.8 µM with NCI-H23 lung; 37.8 µM with KM12 colon; 12.4 µM with MALME-3M melanoma.
